Experiments:
barnyardgrass = test: Test C pre-/postemergence herbicide test; format: in vivo, Echinochloa crus-galli
Method in brief: (§1)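 Two application timings ran in parallel with identically formulated test chemicals (non-phytotoxic solvent, surfactant included): spray on seeded loam–sand soil, and spray on emerged plants 2 to 18 cm high. Evaluation at 13 to 15 days compared each species with controls, rated from 0 up to 100.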

giant foxtail = test: Test A pre-/postemergence herbicide test; format: in vivo, Setaria faberii; conditions: for Plant response rating, Foxtail, Giant: 0 to 100 scale
Method in brief: (§2)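 Directed soil spray to seeded pots (preemergence) or spray onto one- to two-leaf seedlings 2–10 cm tall (postemergence); loam/sand substrate throughout. Evaluated visually after about 10 days against untreated plants, 0 = no effect, 100 = complete control.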

wheat = test: Test A pre-/postemergence herbicide test; format: in vivo, Triticum aestivum; conditions: Postemergence
Method in brief: as §2

foxtail, giant = test: Test C pre-/postemergence herbicide test; format: in vivo, Setaria faberii
Method in brief: as §1

morningglory = test: Test C pre-/postemergence herbicide test; format: in vivo, Ipomoea coccinea
Method in brief: as §1

johnsongrass = test: Test C pre-/postemergence herbicide test; format: in vivo, Sorghum halepense
Method in brief: as §1

wheat (winter wheat) = test: Test C pre-/postemergence herbicide test; format: in vivo, Triticum aestivum
Method in brief: as §1

galium = test: Test C pre-/postemergence herbicide test; format: in vivo, Galium aparine
Method in brief: as §1

pigweed = test: Test C pre-/postemergence herbicide test; format: in vivo, Amaranthus retroflexus
Method in brief: as §1

lambsquarters = test: Test C pre-/postemergence herbicide test; format: in vivo, Chenopodium album
Method in brief: as §1

[1] = Postemergence, 31 g ai/ha, scale 0 to 100 (0 no effect, 100 complete control)
[2] = Postemergence, 62 g ai/ha, scale 0 (no effect) to 100 (complete control)
[3] = Postemergence, 125 g ai/ha, scale 0 to 100 (0 no effect, 100 complete control)
[4] = Postemergence, 250 g ai/ha, scale 0 to 100 (0 no effect, 100 complete control)
[5] = Preemergence, 31 g ai/ha, scale 0 to 100, 0 is no effect and 100 is complete control
[6] = Preemergence, 125 g ai/ha, scale 0 to 100 (0 no effect, 100 complete control)
[7] = Preemergence, 62 g ai/ha, scale 0 to 100 (0 no effect, 100 complete control)

O=C1NCC(c2cccc(OC(F)F)c2)C1C(=O)Nc1ccccc1F (stereo not shown) [Compound 223]
Plant response rating, Barnyardgrass (barnyardgrass; [1]): 0 | Plant response rating, Barnyardgrass (barnyardgrass; [2]): 0 | Plant response rating, Barnyardgrass (barnyardgrass; [3]): 45 | Plant response rating, Barnyardgrass (barnyardgrass; [4]): 60 | Barnyardgrass plant response rating (barnyardgrass; [5]): 65 | Plant response rating, Barnyardgrass (barnyardgrass; Preemergence, 62 g ai/ha, scale 0 to 100): 85 | Plant response rating, Barnyardgrass (barnyardgrass; [6]): 90 | Plant response rating (scale of 0 to 100; 0 is no effect, 100 is complete control), Barnyardgrass (barnyardgrass; Preemergence, 250 g ai/ha): 95 | Plant response rating, Foxtail, Giant (giant foxtail; 125 g ai/ha, visual rating, 0 no effect, 100 complete control, approximately 10 days, preemergence): 90 | Plant response rating, Foxtail, Giant (giant foxtail; Postemergence, 125 g ai/ha, 0 is no effect, 100 is complete control): 80 | Foxtail, Giant plant response rating (0 to 100 scale, 0 is no effect, 100 is complete control) (giant foxtail; Postemergence, 500 g ai/ha): 90 | Plant response rating, Foxtail, Giant (giant foxtail; preemergence, 500 g ai/ha, 0 is no effect and 100 is complete control): 90 | Plant response rating, Wheat (wheat; 125 g ai/ha, 0 to 100 scale, 0 is no effect, 100 is complete control): 40 | Wheat plant response rating (0 to 100 scale, 0 is no effect, 100 is complete control) (wheat; 500 g ai/ha): 50 | Plant response rating, Foxtail, Giant (foxtail, giant; [1]): 0 | Plant response rating, Foxtail, Giant (foxtail, giant; [2]): 35 | Plant response rating, Foxtail, Giant (foxtail, giant; [3]): 30 | Plant response rating, Foxtail, Giant (foxtail, giant; [4]): 35 | Foxtail, Giant plant response rating (foxtail, giant; [5]): 70 | Foxtail, Giant plant response rating (foxtail, giant; [7]): 85 | Plant response rating, Foxtail, Giant (foxtail, giant; [6]): 90 | Plant response rating (scale of 0 to 100), Foxtail, Giant (foxtail, giant; Preemergence, 250 g ai/ha): 98 | Plant response rating, Morningglory (morningglory; [1]): 0 | Plant response rating, Morningglory (morningglory; [2]): 0 | Plant response rating, Morningglory (morningglory; [3]): 0 | Plant response rating, Morningglory (morningglory; [4]): 35 | Morningglory plant response rating (morningglory; [5]): 0 | Morningglory plant response rating (morningglory; [7]): 0 | Plant response rating, Morningglory (morningglory; [6]): 10 | Plant response rating (scale of 0 to 100), Morningglory (morningglory; Preemergence, 250 g ai/ha): 20 | Plant response rating, Johnsongrass (johnsongrass; [1]): 0 | Plant response rating, Johnsongrass (johnsongrass; [2]): 0 | Plant response rating, Johnsongrass (johnsongrass; [3]): 0 | Plant response rating, Johnsongrass (johnsongrass; [4]): 0 | Johnsongrass plant response rating (johnsongrass; [5]): 0 | Johnsongrass plant response rating (johnsongrass; [7]): 0 | Plant response rating, Johnsongrass (johnsongrass; [6]): 35 | Plant response rating (scale of 0 to 100), Johnsongrass (johnsongrass; Preemergence, 250 g ai/ha): 55 | Plant response rating, Wheat (wheat (winter wheat); [1]): 0 | Plant response rating, Wheat (wheat (winter wheat); [2]): 0 | Plant response rating, Wheat (wheat (winter wheat); [3]): 0 | Plant response rating, Wheat (wheat (winter wheat); [4]): 0 | Wheat plant response rating (wheat (winter wheat); [5]): 0 | Wheat plant response rating (wheat (winter wheat); [7]): 5 | Plant response rating, Wheat (wheat (winter wheat); [6]): 10 | Plant response rating (scale of 0 to 100), Wheat (wheat (winter wheat); Preemergence, 250 g ai/ha): 35 | Plant response rating, Galium (galium; [1]): 5 | Plant response rating, Galium (galium; [2]): 5 | Plant response rating, Galium (galium; [3]): 45 | Plant response rating, Galium (galium; [4]): 70 | Galium plant response rating (galium; [5]): 0 | Galium plant response rating (galium; [7]): 0 | Plant response rating, Galium (galium; [6]): 90 | Plant response rating (scale of 0 to 100), Galium (galium; Preemergence, 250 g ai/ha): 90 | Plant response rating, Pigweed (pigweed; [1]): 5 | Plant response rating, Pigweed (pigweed; [2]): 10 | Plant response rating, Pigweed (pigweed; [3]): 10 | Plant response rating, Pigweed (pigweed; [4]): 60 | Pigweed plant response rating (pigweed; [5]): 20 | Pigweed plant response rating (pigweed; [7]): 5 | Plant response rating, Pigweed (pigweed; [6]): 20 | Plant response rating (scale of 0 to 100), Pigweed (pigweed; Preemergence, 250 g ai/ha): 30 | Plant response rating, Lambsquarters (lambsquarters; [1]): 0 | Plant response rating, Lambsquarters (lambsquarters; [2]): 5 | Plant response rating, Lambsquarters (lambsquarters; [3]): 35 | Plant response rating, Lambsquarters (lambsquarters; [4]): 60 | Lambsquarters plant response rating (lambsquarters; [5]): 70 | Lambsquarters plant response rating (lambsquarters; [7]): 70 | Plant response rating, Lambsquarters (lambsquarters; [6]): 85 | Plant response rating (scale of 0 to 100), Lambsquarters (lambsquarters; Preemergence, 250 g ai/ha): 90

Reference: patent US10294202B2, “Pyrrolidinones as herbicides” (FMC Corporation, priority 2013, dated 2019)
